In patent US20230302082A1, “AGENT FOR REVERSIBLE OPENING OF NEURAL VASCULAR BARRIER” (YAMAGUCHI UNIVERSITY, priority 2020, published 2023):
Counter-ions that a name gives are not always drawn.

What was measured:
[1] = test system: neural vascular barrier; test: Uptake of intravenously administered doxorubicin into cerebrum, liver and kidney with or without preadministration of CypA (doxorubicin fluorescence); assay type: in vivo, mouse
Method: Further, fluorescence emitted by doxorubicin was used to evaluate the uptake of doxorubicin into the cerebrum, the liver and the kidney. […] Fujifilm Wako Pure Chemical Corp.), an anticancer drug with low intracerebral penetration, was injected into caudal veins of mice with or without pre-injection of CypA (200 μg/kg). Pre-injection of CypA was performed intravenously 3 hours prior to the injection of doxorubicin. Mice were sacrificed 3 hours after the injection of doxorubicin hydrochloride, and the cerebrum, the liver, and the kidney were collected and embedded and frozen in OCT compound. Next, frozen sections of 30 μm thickness were prepared and observed under an LSM710 laser confocal microscope (Carl Zeiss AG).

[2] = test system: mouse retinal vasculature; test: Permeability of the retinal vasculature (leakage of injected tracer dye, index of blood-retinal barrier function); assay type: in vivo; conditions: mouse retina, single intravenous injection 200 μg/kg
Method: (§1) Seven-week-old male C57B6/N mice (Japan SLC, Inc.) were given a single intravenous injection (200 μg/kg) of CypA. A change in the expression level of claudin-5 localized in the endothelial cell membranes of the retinal vasculature and permeability of the retinal vasculature were measured 3, 6, and 24 hours after the […] injection. The change in the expression of claudin-5 was measured by immunofluorescence staining using the rabbit polyclonal antibodies against claudin-5 in the same manner as in Example 1. The above-mentioned measurement of the permeability of the retinal vasculature was performed as follows.
First, 500 μL of PBS containing 100 μg/mL Hoechst dye H33258 (molecular weight 534 Da, Sigma-Aldrich) and 1 mg/mL tetramethylrhodamine-conjugated lysine-fixable dextran (molecular weight 10,000 Da, Thermo Fisher Scientific) was injected into the left ventricle as a tracer dye. After injection of the Hoechst dye, eyes were enucleated and immediately fixed with 4% paraformaldehyde (PFA) for 15 min at room temperature under light protection, thereby preparing retinal flat mounts. They were mounted in a fluorescent mounting medium, and leakage of the injected tracer was observed under a Zeiss LSM510 META laser confocal microscope (Carl Zeiss AG) to measure the permeability of the retinal vasculature (an index of blood-retinal barrier function). Experiments were performed independently 3 times or more.

[3] = test system: mouse retinal vasculature; test: Claudin-5 expression in endothelial cell membranes of the retinal vasculature after intravenous CypA (immunofluorescence); assay type: in vivo; conditions: mouse retina, single intravenous injection 200 μg/kg
From the text: Based on the results of Example 1, a change in the barrier function caused by CypA administration was examined in vivo using a mouse retinal tissue. Note that the retina is a tissue that is formed as an outgrowth of the central neural system during the process of ontogeny and is a part of the central neural system like the brain. Since the vascular system of the retina can be two-dimensionally observed and evaluated over the entire length in the longitudinal direction, the retina was used as an analysis material representing the central neural system in the present example.
as §1

[4] = test system: bEnd.3 cell monolayer; test: TEER (index of vascular barrier function) of the bEnd.3 cell monolayer; assay type: cell-based, mouse
Method: (§2) In an in vitro system, mouse brain microvascular endothelial cell line bEnd.3 cells (obtained from the American Type Culture Collection) were grown as a monolayer at 37° C. under 5% CO^2 in Dulbecco's modified Eagle's medium containing 4500 mg/L glucose (Sigma-Aldrich) supplemented with 10% fetal bovine serum (FBS). CypA (200, 300 or 400 ng/ml: BioVendor R&D) was added to the culture supernatant of the monolayer-cultured bEnd.3 cells, followed by incubation for 3 hours. Subsequently, expression changes of claudin-5 in the bEnd.3 cells were observed by immunofluorescence staining, and claudin-5 signals on the cell membranes were quantified. Further, TEER, an index of vascular barrier function, was measured in the bEnd.3 cell monolayer.
The immunofluorescence staining, the quantification of the claudin-5 signals on the cell membranes, and the measurement of TEER in the bEnd.3 cell monolayer were performed in the same manner as in Example 1 except that CypA (300 ng/ml: BioVendor R&D) lacking PPlase activity was used as CypA.
In order to evaluate the opening effect of CypA on the neural vascular barrier over time, the same experiment as in Example 1 was performed while changing the treatment time of CypA. Specifically, CypA at a concentration of 300 ng/ml was applied to the cells, followed by incubation for 1, 3, 6, 9, and 12 hours. Then, the cells were subjected to the immunofluorescence staining, the quantification of the claudin-5 signals on the cell membranes, and the measurement of TEER in the bEnd.3 cell monolayer.

[5] = test system: mouse brain microvascular endothelial cell line bEnd.3 cells; test: Immunofluorescence staining and quantification of claudin-5 signals on the cell membranes of monolayer-cultured bEnd.3 cells; assay type: cell-based
Method: as §2
The immunofluorescence staining was performed as follows. First, the cultured bEnd.3 cells were fixed with 100% methanol for 5 min at room temperature and incubated with 10% non-immune goat serum (Invitrogen) for 30 minutes to block non-specific binding of antibodies. Next, the cells were reacted with rabbit polyclonal antibodies against claudin-5 (1/25 dilution, Invitrogen) at 4° C. overnight. After washing with phosphate-buffered saline (PBS), the cells were incubated with Alexa Fluor 488 goat anti-rabbit IgG (1/200 dilution, Eugene) for 1 hour at room temperature under light protection. […] For a quantitative analysis, fluorescence intensities of claudin-5 on the plasma membranes were measured using an operation menu installed in LSMS Pascal6, 7.3. […] Fluorescence intensities were then quantified at points on the cell membranes that intersected the drawn straight lines. The mean value of the fluorescence intensities was calculated as an expression level of claudin-5 on the cell membranes of each monolayer at approximately 80 points. […]
The immunofluorescence staining, the quantification of the claudin-5 signals on the cell membranes, and the measurement of TEER in the bEnd.3 cell monolayer were performed in the same manner as in Example 1 except that CypA (300 ng/ml: BioVendor R&D) lacking PPlase activity was used as CypA. […]

Molecule | fluorescent signals of doxorubicin in the liver and the kidney ([1]; mouse, doxorubicin hydrochloride 6.25 mg/kg i.v., 3 hours after injection, with or without pre-injection of CypA) | doxorubicin fluorescence signal in the cerebrum ([1]; mouse, doxorubicin hydrochloride 6.25 mg/kg i.v., 3 hours after injection, with preadministration of CypA 200 μg/kg i.v. 3 hours before) | doxorubicin fluorescence signal in the cerebrum ([1]; mouse, doxorubicin hydrochloride 6.25 mg/kg i.v., 3 hours after injection, without preadministration of CypA) | leakage of the injected tracer dye ([2]; 3 hours (FIG. 4b)) | leakage of the injected tracer dye ([2]; 6 hours (FIG. 4b)) | leakage of the injected tracer dye ([2]; 24 hours (FIG. 4b)) | effect of CypA preadministration on delivery of doxorubicin to the neural tissue parenchyma ([1]; mouse cerebrum, CypA 200 μg/kg i.v. 3 hours before doxorubicin hydrochloride 6.25 mg/kg i.v.) | effect of CypA pre-injection on intensities of doxorubicin fluorescence signals in the liver and the kidney ([1]; mouse, CypA 200 μg/kg i.v. 3 hours before doxorubicin hydrochloride 6.25 mg/kg i.v.) | expression level of claudin-5 in the cell membranes of the peripheral microvascular endothelial cells ([3]; 3 hours (FIG. 4a)) | expression level of claudin-5 in the cell membranes of the peripheral microvascular endothelial cells ([3]; 24 hours (FIG. 4a)) | barrier function (TEER) ([4]; CypA 300 ng/ml, 3 hours after treatment (FIG. 3c)) | barrier function (TEER) ([4]; CypA 300 ng/ml, 6 hours (FIG. 3c)) | barrier function (TEER) ([4]; CypA 200, 300 or 400 ng/ml, 3 hours after treatment (FIG. 1c)) | claudin-5 level on the cell membranes ([5]; CypA 300 ng/ml, 3 hours after treatment (FIG. 3a, 3b)) | claudin-5 level on the cell membranes ([5]; CypA 300 ng/ml, 6 hours (FIG. 3a, 3b)) | claudin-5 level on the cell membranes ([5]; CypA 200, 300 or 400 ng/ml, 3 hours after treatment (FIG. 1a, 1B))
COc1cccc2c1C(=O)c1c(O)c3c(c(O)c1C2=O)C[C@@](O)(C(=O)CO)C[C@@H]3O[C@H]1C[C@H](N)[C@H](O)[C@H](C)O1 [doxorubicin, Doxorubicin hydrochloride] | strong fluorescent signals of doxorubicin were detected | significant doxorubicin fluorescence signals were detected | no doxorubicin fluorescence signal was detected |  |  |  |  |  |  |  |  |  |  |  |  | 
Cyclophilin A [CypA] |  |  |  | increased | decreased after 6 hours as compared with after 3 hours | returned to an undetectable physiological level | allowed the intravenously administered doxorubicin to pass through the neural vascular barrier and reach the neural tissue parenchyma | not significantly affected | decrease | recovered to a physiological level | significantly decreased | recovered to the state prior to the CypA stimulation | significant reduction in the barrier function | decreased significantly | recovered to the level prior to the CypA stimulation | significantly reduced
